{"source": "paper PMC3602354", "about": "(Chemical research in toxicology, 2013)", "key": {"in vitro [1]": {"experiment": "in vitro", "assay_type": "in vitro ADME, mouse", "details": "mouse, pH 7.4"}, "[2]": {"system": "WT mouse nasal mucosa microsomes", "experiment": "in vitro", "assay_type": "in vitro ADME", "details": "GS-DCBN formation; WT mouse nasal mucosa microsomes; mean ± SE, n=3"}, "in vitro [3]": {"experiment": "in vitro", "assay_type": "in vitro ADME, mouse", "details": "Cyp2a5-null, mouse, pH 7.4"}, "[4]": {"system": "Cyp2a5-null mouse nasal mucosa microsomes", "experiment": "in vitro", "assay_type": "in vitro ADME"}, "in vitro [5]": {"experiment": "in vitro", "assay_type": "in vitro ADME, human", "details": "both, human"}, "[6]": {"system": "human fetal nasal mucosa microsomes", "experiment": "in vitro", "assay_type": "in vitro ADME", "details": "GS-DCBN formation; human fetal nasal mucosa microsomes; mean ± SE, n=3"}, "nasal mucosa [7]": {"system": "nasal mucosa", "experiment": "Histopathological analysis of nasal mucosa in DCBN-treated WT mice", "assay_type": "in vivo, mouse"}, "nasal mucosa [8]": {"system": "nasal mucosa", "experiment": "Histopathological analysis of nasal mucosa in DCBN-treated Cyp2a5-null mice", "assay_type": "in vivo, mouse", "details": "DCBN 10 mg/kg single i.p., 24 h after treatment"}, "[9]": {"details": "Cyp2a5-null vs WT nasal mucosa microsomes"}}, "note": "Where “and” joins values, the source holds several entries; their conditions need not be identical. Equal entries are not always repeated.", "data": [{"smiles": "N#Cc1c(Cl)cccc1Cl", "note": "[DCBN, 2,6-dichlorobenzonitrile]", "values": [{"measurement": "Km", "setting": "in vitro [1]", "value": "0.43 ± 0.04", "unit": "µM"}, {"measurement": "Vmax", "setting": "[2]", "value": "1050 ± 30", "unit": "pmol/min/mg protein"}, {"measurement": "Km", "setting": "in vitro [3]", "value": "4.2 ± 0.6", "unit": "µM"}, {"measurement": "decrease in apparent Vmax compared to WT mice", "setting": "[4]; [9]", "value": "~ 4 fold"}, {"measurement": "increase in apparent Km compared to WT mice", "setting": "[4]; [9]", "value": "~ 10 fold"}, {"measurement": "reduction of efficiency for GS-DCBN formation compared to WT mice", "setting": "[4]; [9]", "value": "~ 40 fold"}, {"measurement": "Vmax", "setting": "[4]; GS-DCBN formation, Cyp2a5-null mouse nasal mucosa microsomes, mean ± SE, n=3", "value": "253 ± 12", "unit": "pmol/min/mg protein"}, {"measurement": "Km at 60 min", "setting": "in vitro [5]", "value": "0.45 ± 0.1", "unit": "µM"}, {"measurement": "Vmax", "setting": "[6]", "value": "0.14 pmol/min/mg protein and 0.14 ± 0.01 pmol/min/mg protein"}, {"measurement": "histopathology of nasal mucosa", "setting": "nasal mucosa [7]; DCBN 10 mg/kg single i.p., 24 h after treatment", "value": "moderate injury to the nasal mucosa"}, {"measurement": "histopathology of nasal mucosa", "setting": "nasal mucosa [7]; DCBN 4 × 1 mg/kg s.c., 1.5-h intervals, 24 h after last treatment", "value": "essentially normal morphology"}, {"measurement": "histopathology of nasal mucosa", "setting": "nasal mucosa [8]", "value": "essentially normal olfactory epithelium and BG"}]}]}
